Measured values: paper PMC8248988, “A signal capture and proofreading mechanism for the KDEL-receptor explains selectivity and dynamic range in ER retrieval” (eLife, 2021)

Target: T1, human KDELR1 (Homo sapiens, UniProt P24390)
T1 construct: expressed in transfected cells; host or cells: COS-7
Experiment: ER retrieval assay, WT KDELR1-GFP
Type: cell-based
Conditions: COS-7 cells, WT human KDEL receptor-GFP with mScarlet ligand
Source text: To create KDELR1-GFP and KDELR2-GFP, the reading frames for Homo sapiens KDELR1 (Uniprot: P24390) and KDELR2 (Uniprot: P33947) were cloned into the pEF5/FRT low level mammalian expression vector with a C-terminal 20 amino acid linker made up of 5 copies of Gly-Ser-Ser-Ser followed by GFP. Specific point mutations were introduced using the Quickchange protocol (Stratagene) and are described in the key resources table and figures. To create the mScarlet-KDEL^sec ligand construct, mScarlet with an N-terminal hGH signal peptide and the 16 C-terminal residues of human BiP at its C-terminus, containing the KDEL signal, was cloned into the pcDNA3.1 vector. […] The Golgi marker protein TGN46 was detected by antibody (sheep anti-TGN46 AHP500G; AbD Serotec) and an Alexa 647 conjugated secondary anti-sheep secondary (A-21448, Invitrogen). In Figure 1d and e, endogenous KDELR was detected by antibody (mouse anti-KDELR ADI-VAA-PT048; Enzo Life Sciences) and Alexa 488 conjugated anti-mouse secondary antibody (A-21202, Invitrogen). For retrieval assays in other figures, KDELR-GFP fusion proteins were directly detected by fluorescence. The mScarlet-xDEL fusion proteins were directly detected by fluorescence. […] The fraction of KDEL receptor in the Golgi apparatus was calculated by dividing the Golgi signal by the total cell signal. […]

T1 sequence (P24390 whole entry): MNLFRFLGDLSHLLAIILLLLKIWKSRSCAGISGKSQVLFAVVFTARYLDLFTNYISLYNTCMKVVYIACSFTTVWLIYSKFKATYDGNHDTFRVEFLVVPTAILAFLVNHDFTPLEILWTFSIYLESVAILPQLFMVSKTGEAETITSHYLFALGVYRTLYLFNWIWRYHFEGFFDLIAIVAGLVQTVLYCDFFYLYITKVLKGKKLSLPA

- ligand-induced receptor retrieval to the ER (in words): does not activate
Substance: ADEL [pcDNA3.1 hGHss-mScarlet-H. sapiens BiP639-654K651A (ADEL^SEC), secreted mScarlet fusion with human BiP C-terminus, ADEL signal]
